According to patent US12024716B2, “Compositions and methods of expansion of T cell populations” (THE BOARD OF TRUSTEES OF THE LELAND STANFORD JUNIOR …, priority 2018, dated 2024):
Where two headings read alike, the source gives them in different places.

Legend:
pRPS6 = conditions: gated on CFSE+CD8+ T cells
Text: (§1) Mass cytometry data were normalized and debarcoded.

[1] = system: human naïve CFSE+ CD8+ T cells; conditions: for CFSE^+ CD8^+ T cells (%)^*: live and non-apoptotic gates not applied
Text: Peripheral blood mononuclear cells (PBMCs) were isolated from Trima Accel leukocyte reduction system (LRS) chambers (Terumo BCT, Lakewood, CO) of de-identified healthy blood donors (Stanford Blood Center, Palo Alto, CA) using Ficoll-Paque Plus (GE Healthcare, Chicago, IL, USA) density gradient centrifugation according to manufacturer's instructions. For long-term storage, PBMCs were resuspended in FBS with 10% DMSO and stored in liquid nitrogen at density 1-5×10^7 cells/mL. Cryopreserved PBMCs were thawed into cell culture medium (CCM; RPMI 1640 containing 10% FBS, 1× L-glutamine, and 1× penicillin/streptomycin; Thermo Fisher Scientific Waltham, MA, USA) supplemented with 25 U/mL benzonase (SIGMA-ALDRICH®, St. Louis, MO, USA). Cells were then pelleted for 5 minutes at 250×g, resuspended in 10 mL CCM, rested at 37° C., 5% CO2 for 60 minutes, filtered through a 40 μm strainer, and counted. Where indicated, naïve T cells were enriched using Naïve Pan T Cell Isolation Kit (Miltenyi Biotec #130-097-095, Bergisch Gladbach, Germany) according to manufacturer's instructions.
Unless otherwise noted, carboxyfluorescein succinimidyl ester (CFSE) labeling was performed as described by Quah and Parish16, 17. Briefly, 50 μg carboxyfluorescein diacetate succinimidyl ester (CFDA-SE) was reconstituted in 18 μL DMSO (CellTrace CFSE Cell Proliferation Kit, Thermo Fisher Scientific #C34554) to create a 5 mM stock immediately prior to labeling. Cells were resuspended in 1 mL warm CCM and transferred into a new 15 mL Falcon tube lying horizontally. A drop containing 110 μL warm PBS was placed on a side of the tube, and 17.6 μL of 5 mM CFDA-SE was diluted into the drop. The tube was then quickly capped and turned upside right while being vortexed gently, yielding a final concentration of 80 μM CFDA-SE. Cells were incubated for 5 minutes at room temperature, quenched by adding 9 mL warm CCM, and washed twice with 10 mL warm CCM. When only naïve T cells were labeled with CFSE, they were combined with the CFSE-negative PBMC fraction devoid of naïve T cells after labeling to restore original cell proportions. All centrifuging steps for live cells were done for 5 minutes at 250 g, 37° C. CFSE and labeled cells were protected from light throughout the experiment. During protocol optimization, the above labeling protocol for 0.1-10×10^7 cells and CFSE concentrations in range of 0.2 μM to 320 μM was tested. Long-term cell viability and proliferation were assessed. Manufacturer's labeling protocol for CFSE concentrations 0.2 μM to 20 μM, as well as other CFSE suppliers (BIOLEGEND® #422701, San Diego, CA, USA) were also tested.
Samples were processed as previously known in the art. To stain cells for viability, cisplatin (SIGMA-ALDRICH® #P4394) was reconstituted to 100 mM in DMSO and incubated at 37° C. for 3 days to prepare a stock solution, which was then stored in aliquots at −20° C. Cell pellets were resuspended in 1 mL PBS containing 0.5 μM cisplatin, gently vortexed, incubated 5 minutes at room temperature, quenched with 3 mL CCM, pelleted, and resuspended in 1 mL CCM. […] All centrifuging steps for fixed cells were done for 5 minutes at 600×g, 4° C. Cell pellets were optionally stored at −80° C.
as §1

[2] = system: human naïve CFSE+ CD8+ T cells; assay: Naïve CD8+ T-cell differentiation in REP: skewing between TSCM-like and dysfunctional phenotype (mass cytometry, force-directed graph, DPT); conditions: for CD45RA^Low CD25^High (%) / CD45RA^High CD25^Low (%): gated on CFSE^+CD8^+T cells; for CD45RA^Low CD25^High (%): path toward dysfunctional phenotype; for CD45RA^High CD25^Low (%): path towards TSCM-like phenotype; for CD45RA High CD25 Low (%) / CD45RA Low CD25 High (%): gated on CFSE+CD8+ T cells
[3] = REP day 3, among CD45RA^High CD25^Low CFSE^+CD8^+T cells
[4] = REP day 3, among CD45RA^Low CD25^High CFSE^+CD8^+T cells
[5] = REP day 4, among CD45RA^High CD25^Low CFSE^+CD8^+T cells
[6] = REP day 4, among CD45RA^Low CD25^High CFSE^+CD8^+T cells
[7] = REP day 5, among CD45RA^High CD25^Low CFSE^+CD8^+T cells
[8] = REP day 5, among CD45RA^Low CD25^High CFSE^+CD8^+T cells
[9] = REP day 7, among CD45RA^High CD25^Low CFSE^+CD8^+T cells
[10] = REP day 7, among CD45RA^Low CD25^High CFSE^+CD8^+T cells
[11] = in CD45RA High CD25 Low subset of CFSE+CD8+ T cells, REP day 3
[12] = in CD45RA High CD25 Low subset of CFSE+CD8+ T cells, REP day 4
[13] = in CD45RA High CD25 Low subset of CFSE+CD8+ T cells, REP day 5
[14] = in CD45RA High CD25 Low subset of CFSE+CD8+ T cells, REP day 7
[15] = in CD45RA Low CD25 High subset of CFSE+CD8+ T cells, REP day 3
[16] = in CD45RA Low CD25 High subset of CFSE+CD8+ T cells, REP day 4
[17] = in CD45RA Low CD25 High subset of CFSE+CD8+ T cells, REP day 5
[18] = in CD45RA Low CD25 High subset of CFSE+CD8+ T cells, REP day 7

Compound: CO[C@H]1C[C@@H]2CC[C@@H](C)[C@@](O)(O2)C(=O)C(=O)N2CCCC[C@H]2C(=O)O[C@H]([C@H](C)C[C@@H]2CC[C@@H](O)[C@H](OC)C2)CC(=O)[C@H](C)/C=C(\C)[C@@H](O)[C@@H](OC)C(=O)[C@H](C)C[C@H](C)/C=C/C=C/C=C/1C [Rapamycin, rapamycin]
- pRPS6+ (%) (first column, c2) (pRPS6; REP day 3): 99.49%
- pRPS6+ (%) (second column, c5) (pRPS6; REP day 3): 0.51%
- pRPS6+ (%) (first column, c2) (pRPS6; REP day 4): 99.15%
- pRPS6+ (%) (second column, c5) (pRPS6; REP day 4): 0.85%
- pRPS6+ (%) (first column, c2) (pRPS6; REP day 5): 99.28%
- pRPS6+ (%) (second column, c5) (pRPS6; REP day 5): 0.72%
- pRPS6+ (%) (first column, c2) (pRPS6; REP day 7): 99.44%
- pRPS6+ (%) (second column, c5) (pRPS6; REP day 7): 0.56%
- Apoptotic cells (% cPARP+ cells in CFSE+ CD8+ T cells) ([1]; REP day 3): 0.43%
- Apoptotic cells (% cPARP^+ cells in CFSE^+ CD8^+T cells) ([1]; REP day 3): 0.43%
- CFSE+ CD8+ T cells (%) ([1]; REP day 3): 2.14%
- Dead cells (1% cisplatin+ cells in CFSE+ CD8+ T cells) ([1]; REP day 3): 0.26%
- Dead cells (1% cisplatin^+ cells in CFSE^+ CD8^+ T cells) ([1]; REP day 3): 0.26%
- Total CFSE+ CD8+ T cells ([1]; REP day 3): 0.14
- Total CFSE^+ CD8^+ T cells ([1]; REP day 3): 0.14
- Total cells (×10^6) ([1]; REP day 3): 6.48 ×10^6
- Apoptotic Cell (%) [1, 3]: 0.53%
- Dead cells (%) [1, 3]: 0.00%
- Apoptotic Cells (%) [1, 4]: 0.31%
- Dead cells (%) [1, 4]: 0.63%
- CFSE^+ CD8^+ T cells (%)^* ([1]; REP day 3): 2.14%
- Apoptotic cells (% cPARP+ cells in CFSE+ CD8+ T cells) ([1]; REP day 4): 0.85%
- Apoptotic cells (% cPARP^+ cells in CFSE^+ CD8^+T cells) ([1]; REP day 4): 0.85%
- CFSE+ CD8+ T cells (%) ([1]; REP day 4): 3.07%
- Dead cells (1% cisplatin+ cells in CFSE+ CD8+ T cells) ([1]; REP day 4): 0.38%
- Dead cells (1% cisplatin^+ cells in CFSE^+ CD8^+ T cells) ([1]; REP day 4): 0.38%
- Total CFSE+ CD8+ T cells ([1]; REP day 4): 0.31
- Total CFSE^+ CD8^+ T cells ([1]; REP day 4): 0.31
- Total cells (×10^6) ([1]; REP day 4): 9.96 ×10^6
- Apoptotic Cell (%) [1, 5]: 0.59%
- Dead cells (%) [1, 5]: 0.39%
- Apoptotic Cells (%) [1, 6]: 0.84%
- Dead cells (%) [1, 6]: 0.21%
- CFSE^+ CD8^+ T cells (%)^* ([1]; REP day 4): 3.07%
- Apoptotic cells (% cPARP+ cells in CFSE+ CD8+ T cells) ([1]; REP day 5): 1.07%
- Apoptotic cells (% cPARP^+ cells in CFSE^+ CD8^+T cells) ([1]; REP day 5): 1.07%
- CFSE+ CD8+ T cells (%) ([1]; REP day 5): 5.14%
- Dead cells (1% cisplatin+ cells in CFSE+ CD8+ T cells) ([1]; REP day 5): 0.21%
- Dead cells (1% cisplatin^+ cells in CFSE^+ CD8^+ T cells) ([1]; REP day 5): 0.21%
- Total CFSE+ CD8+ T cells ([1]; REP day 5): 0.71
- Total CFSE^+ CD8^+ T cells ([1]; REP day 5): 0.71
- Total cells (×10^6) ([1]; REP day 5): 13.91 ×10^6
- Apoptotic Cell (%) [1, 7]: 2.33%
- Dead cells (%) [1, 7]: 0.00%
- Apoptotic Cells (%) [1, 8]: 0.79%
- Dead cells (%) [1, 8]: 0.24%
- CFSE^+ CD8^+ T cells (%)^* ([1]; REP day 5): 5.14%
- Apoptotic cells (% cPARP+ cells in CFSE+ CD8+ T cells) ([1]; REP day 7): 2.16%
- Apoptotic cells (% cPARP^+ cells in CFSE^+ CD8^+T cells) ([1]; REP day 7): 2.16%
- CFSE+ CD8+ T cells (%) ([1]; REP day 7): 6.49%
- Dead cells (1% cisplatin+ cells in CFSE+ CD8+ T cells) ([1]; REP day 7): 1.13%
- Dead cells (1% cisplatin^+ cells in CFSE^+ CD8^+ T cells) ([1]; REP day 7): 1.13%
- Total CFSE+ CD8+ T cells ([1]; REP day 7): 1.82
- Total CFSE^+ CD8^+ T cells ([1]; REP day 7): 1.82
- Total cells (×10^6) ([1]; REP day 7): 28.03 ×10^6
- Apoptotic Cell (%) [1, 9]: 3.47%
- Dead cells (%) [1, 9]: 0.69%
- Apoptotic Cells (%) [1, 10]: 1.15%
- Dead cells (%) [1, 10]: 0.72%
- CFSE^+ CD8^+ T cells (%)^* ([1]; REP day 7): 6.49%
- Apoptotic Cell (%) [1, 11]: 0.53%
- Dead cells (%) [1, 11]: 0.00%
- Apoptotic Cell (%) [1, 12]: 0.59%
- Dead cells (%) [1, 12]: 0.39%
- Apoptotic Cell (%) [1, 13]: 2.33%
- Dead cells (%) [1, 13]: 0.00%
- Apoptotic Cell (%) [1, 14]: 3.47%
- Dead cells (%) [1, 14]: 0.69%
- Apoptotic Cells (%) [1, 15]: 0.31%
- Dead cells (%) [1, 15]: 0.63%
- Apoptotic Cells (%) [1, 16]: 0.84%
- Dead cells (%) [1, 16]: 0.21%
- Apoptotic Cells (%) [1, 17]: 0.79%
- Dead cells (%) [1, 17]: 0.24%
- Apoptotic Cells (%) [1, 18]: 1.15%
- Dead cells (%) [1, 18]: 0.72%
- CD45RA^Low CD25^High (%) ([2]; REP day 3): 27.34%
- CD45RA^High CD25^Low (%) ([2]; REP day 3): 16.11%
- CD45RA^Low CD25^High (%) ([2]; REP day 4): 30.19%
- CD45RA^High CD25^Low (%) ([2]; REP day 4): 16.03%
- CD45RA^Low CD25^High (%) ([2]; REP day 5): 43.80%
- CD45RA^High CD25^Low (%) ([2]; REP day 5): 8.87%
- CD45RA^Low CD25^High (%) ([2]; REP day 7): 21.79%
- CD45RA^High CD25^Low (%) ([2]; REP day 7): 9.00%
- CD45RA High CD25 Low (%) ([2]; REP day 3): 16.11%
- CD45RA Low CD25 High (%) ([2]; REP day 3): 27.34%
- CD45RA High CD25 Low (%) ([2]; REP day 4): 16.03%
- CD45RA Low CD25 High (%) ([2]; REP day 4): 30.19%
- CD45RA High CD25 Low (%) ([2]; REP day 5): 8.87%
- CD45RA Low CD25 High (%) ([2]; REP day 5): 43.80%
- CD45RA High CD25 Low (%) ([2]; REP day 7): 9.00%
- CD45RA Low CD25 High (%) ([2]; REP day 7): 21.79%
